Results from patent publication US5945453A, “Benzoylphenylurea insecticides to control cockroaches” (Dow AgroSciences LLC, priority 1997, dated 1999).

Tests used:
Type in all cases: in vivo
[1] = tested on: Subterranean Termite (Reticulitermes virginicus); assay: Continuous exposure (56 days) to treated paper; conditions: for LT50 (days) for 200 ppm trt / LC50 / speed of action versus hexaflumuron: continuous exposure
Description: Subterranean Termite (Reticulitermes virginicus)
(§1) Continuous exposure (56 days) to treated paper

[2] = tested on: Cat Flea (Ctenocephalides felis); assay: Continuous exposure of larvae to treated media, impact on subsequent adult emergence; conditions: for LC50 / LC90: continuous exposure of larvae, adult emergence
Description: Cat Flea (Ctenocephalides felis)
Continuous exposure of larvae to treated media, impact on subsequent adult emergence

[3] = tested on: Subterranean Termite (Reticulitermes flavipes); assay: Continuous exposure (56 days) to treated paper; conditions: for performance versus hexaflumuron: Eastern Subterranean termite
Description: (§2) Subterranean Termite (Reticulitermes flavipes)
as §1

[4] = tested on: German cockroach 2nd instars (Blattella germanica); assay: Continuous, low-dose ingestion exposure (treated cornmeal)
Description: (§3) German cockroach 2nd instars (Blattella germanica)
Continuous, low-dose ingestion exposure (treated cornmeal)

[5] = tested on: Red Imported Fire Ant (RIFA) (Solenopsis invicta); assay: Laboratory ant bait study, 3-4 day exposure to bait, brood reduction; conditions: for Time to Achieve 50% Brood Reduction / Time to Achieve 90% Brood Reduction: RIFA, best results achieved with compound
Protocol: (§4) Laboratory ant bait studies were carried out with Red Imported Fire Ant (RIFA) (Solenopsis invicta) and Pharaoh Ant (Monomorium pharaonis). Chitin synthesis inhibitors, such as the compounds of the invention, control ants by killing the molting larvae and/or pupae and potentially preventing the hatching of eggs. Because adult workers are not affected, control is measured by effects on the brood.
(§5) The studies involved 3-4 day exposure to bait. These limited exposure studies more accurately represent real world bait availability than continuous exposure.

[6] = tested on: Pharaoh Ant (Monomorium pharaonis); assay: as above; conditions: 0.1%, best results achieved with compound
Protocol: as §4, §5

[7] = tested on: Subterranean Termite (Reticulitermes flavipes); assay: Limited exposure (7 days) with mortality determined at 14, 28, 42, and 56 days; conditions: for LT50 (days) for 10000 ppm treatment: limited exposure (7 days); for speed of activity, Compound 1 versus hexaflumuron: limited exposure
Description: as §2
Limited exposure (7 days) with mortality determined at 14, 28, 42, and 56 days

[8] = tested on: German cockroach 2nd instars (Blattella germanica); assay: Limited ingestion exposure (48 hr) to treated cornmeal; conditions: for LC50, high / LC50, low: 48 hr limited exposure; for LC50, high: 'high' column; for LC50, low: 'low' column (also holds the value where only one is printed); for potency versus hexaflumuron: limited exposure
Description: as §3
Limited ingestion exposure (48 hr) to treated cornmeal

Daphnia = assay: Activity against Daphnia, 48 hr exposure to treated water
Description: 48 hr exposure to treated water

[9] = Southeastern subterranean termite

SMILES: O=C(NC(=O)c1c(F)cccc1F)Nc1cc(Cl)c(OC(F)(F)C(F)C(F)(F)F)c(Cl)c1 (stereo not drawn) [Compound 1, N-[3,5-Dichloro-4-(1,1,2,3,3,3-hexafluoropropoxy)phenyl]-N'-(2,6-difluorobenzoyl) urea]
- LT50 (days) for 200 ppm trt [1]: 10.2 days
- LC50 ([1]; 21 days): 3.5 ppm
- LC50 ([1]; 35 days): < 0.78 ppm
- speed of action versus hexaflumuron [1, 9]: faster acting that hexaflumuron
- LC50 [2]: 8.6 ppm
- LC90 [2]: 12.8 ppm
- activity versus hexaflumuron ([2]; fleas): far more active against fleas than was hexaflumuron
- LT50 (days) for 200 ppm trt [3]: 32.9 days
- LC50 ([3]; 21 days): > 200 ppm
- LC50 ([3]; 35 days): < 0.78 ppm
- performance versus hexaflumuron [3]: no performance advantage
- potency versus hexaflumuron [4]: far superior to hexaflumuron
- LC50 ([4]; 21 days): 14.5 ppm
- LC50 ([4]; 42 days): < 0.23 ppm
- Time to Achieve 50% Brood Reduction ([5]; 0.1%): 2-3 wks
- Time to Achieve 90% Brood Reduction ([5]; 0.1%): 4 wks
- potency versus hexaflumuron ([5]; short exposure study with RIFA): significantly more potent than hexaflumuron
- Time to Achieve 50% Brood Reduction [6]: 2 wks
- Time to Achieve 90% Brood Reduction [6]: 4 wks
- LT50 (days) for 10000 ppm treatment [7]: 34.5 days
- speed of activity, Compound 1 versus hexaflumuron [7]: comparable in speed of activity
- LC50, high ([8]; 21 days): 52.7 ppm
- LC50, low ([8]; 21 days): < 1.0 ppm
- LC50, high ([8]; 42 days): 30.1 ppm
- LC50, low ([8]; 42 days): < 1.0 ppm
- potency versus hexaflumuron [8]: far more potent than hexaflumuron

SMILES: CCN(C(=O)Nc1cc(Cl)c(OC(F)(F)C(F)C(F)(F)F)c(Cl)c1)C(=O)c1c(F)cccc1F (stereo not drawn) [Compound 2, N-[3,5-Dichloro-4-(1,1,2,3,3,3-hexafluoropropoxy)phenyl]-N'-(2,6-difluorobenzoyl)-N'-ethyl urea]
- LC50 [2]: 329.4 ppm
- LC90 [2]: > 1000 ppm
- LT50 (days) for 200 ppm trt [3]: 34.6 days
- LC50 ([3]; 21 days): > 200 ppm
- LC50 ([3]; 35 days): 22.5 ppm
- performance versus hexaflumuron [3]: no performance advantage
- potency versus hexaflumuron [4]: far superior to hexaflumuron
- LC50 ([4]; 21 days): 9.3 ppm
- LC50 ([4]; 42 days): 5.4 ppm
- activity against Daphnia versus Compound 1 or hexaflumuron (Daphnia): far less active against Daphnia than were Compound 1 or hexaflumuron
- LC50, low ([8]; 21 days): 192.0 ppm
- potency versus hexaflumuron [8]: far more potent than hexaflumuron

SMILES: CCN(C(=O)NC(=O)c1c(F)cccc1F)c1cc(Cl)c(OC(F)(F)C(F)C(F)(F)F)c(Cl)c1 (stereo not drawn) [Compound 3, N-[3,5-Dichloro-4-(1,1,2,3,3,3-hexafluoro-propoxy)phenyl]-N'-(2,6-difluorobenzoyl)-N-ethylurea]
- LT50 (days) for 200 ppm trt [1]: 9.7 days
- potency versus hexaflumuron ([1]; 21 days of exposure, Southeastern subterranean termite): more potent at 21 days of exposure
- LC50 ([1]; 21 days): 62.4 ppm
- LC50 ([1]; 35 days): < 0.78 ppm
- speed of action versus hexaflumuron [1, 9]: faster acting that hexaflumuron
- LC50 [2]: 78.0 ppm
- LC90 [2]: 460.7 ppm
- performance versus hexaflumuron [3]: no performance advantage
- potency versus hexaflumuron [4]: far superior to hexaflumuron
- LC50 ([4]; 21 days): 1.3 ppm
- LC50 ([4]; 42 days): 0.78 ppm
- activity against Daphnia versus Compound 1 or hexaflumuron (Daphnia): far less active against Daphnia than were Compound 1 or hexaflumuron
- LC50, low ([8]; 21 days): 52.2 ppm
- LC50, low ([8]; 42 days): 30.9 ppm
- potency versus hexaflumuron [8]: far more potent than hexaflumuron

SMILES: O=C(NC(=O)c1c(F)cccc1F)Nc1cc(Cl)c(OC(F)(F)C(F)F)c(Cl)c1 [hexaflumuron, reference compound]
- LT50 (days) for 200 ppm trt [1]: 16.3 days
- LC50 ([1]; 21 days): 28.8 ppm
- LC50 ([1]; 35 days): < 0.78 ppm
- LC50 [2]: 65.7 ppm
- LC90 [2]: 333.5 ppm
- LT50 (days) for 200 ppm trt [3]: 25.7 days
- LC50 ([3]; 21 days): > 200 ppm
- LC50 ([3]; 35 days): < 0.78 ppm
- LC50 ([4]; 21 days): > 200 ppm
- LC50 ([4]; 42 days): > 200 ppm
- Time to Achieve 50% Brood Reduction ([5]; 0.25%): 4 wks
- Time to Achieve 90% Brood Reduction ([5]; 0.25%): 10 wks
- LT50 (days) for 10000 ppm treatment [7]: 32.9 days
- speed of activity, Compound 1 versus hexaflumuron [7]: comparable in speed of activity
- LC50, low ([8]; 21 days): > 10,000 ppm
- LC50, low ([8]; 42 days): > 10,000 ppm
